In ChEMBL document CHEMBL4706548, “3-Methylthiazolo[3,2-a]benzimidazole-benzenesulfonamide conjugates as novel carbonic anhydrase inhibitors endowed with anticancer activity: Design, synthesis, biological and molecular modeling studies” (Eur J Med Chem, 2020):

Tests used:
Carbonic anhydrase 9 = Carbonic anhydrase 9 (Homo sapiens, UniProt Q16790); test: Inhibition of human CA9 preincubated for 15 mins prior to testing by phenol red-based stopped-flow CO2 hydration assay
Carbonic anhydrase 1 = Carbonic anhydrase 1 (Homo sapiens, UniProt P00915); test: Inhibition of human CA1 preincubated for 15 mins prior to testing by phenol red-based stopped-flow CO2 hydration assay
MDA-MB-231 [1] = test: Antiproliferative activity against human MDA-MB-231 cells assessed as reduction in cell viability incubated for 48 hrs under chemically-induced hypoxic condition by MTT assay; settings: MDA-MB-231, 48 h
MDA-MB-231 [2] = test: Antiproliferative activity against human MDA-MB-231 cells assessed as reduction in cell viability incubated for 48 hrs under normaxic condition by MTT assay; settings: MDA-MB-231, 48 h
MDA-MB-231 [3] = test: Induction of apoptosis in human MDA-MB-231 cells assessed as early apoptotic cells at […] measured after 24 hrs by Annexin V-FITC/propidium iodide staining based flow cytometry (reference value: 0.56 %); type: functional; parameters: dose or concentration left out as unconfirmed
MCF7 [4] = test: Induction of cell cycle arrest in human MCF7 cells assessed as decrease in G0/G1 cells at IC50 concentration incubated for 24 hrs by propidium iodide staining based flow cytometry (reference value: 52.63%); type: functional; parameters: scale not given: the % may be the effect or the level left
MDA-MB-231 [5] = test: Induction of apoptosis in human MDA-MB-231 cells assessed as late apoptotic cells at […] measured after 24 hrs by Annexin V-FITC/propidium iodide staining based flow cytometry (reference value: 0.24 %); type: functional; parameters: dose or concentration left out as unconfirmed
MCF7 [6] = test: Induction of apoptosis in human MCF7 cells assessed as necrotic cells at […] measured after 24 hrs by Annexin V-FITC/propidium iodide staining based flow cytometry (reference value: 1.15 %); type: functional; parameters: dose or concentration left out as unconfirmed
MCF7 [7] = test: Induction of apoptosis in human MCF7 cells assessed as early apoptotic cells at […] measured after 24 hrs by Annexin V-FITC/propidium iodide staining based flow cytometry (reference value: 0.42 %); type: functional; parameters: dose or concentration left out as unconfirmed
MDA-MB-231 [8] = test: Induction of apoptosis in human MDA-MB-231 cells assessed as necrotic cells at […] measured after 24 hrs by Annexin V-FITC/propidium iodide staining based flow cytometry (reference value: 0.64 %); type: functional; parameters: dose or concentration left out as unconfirmed
MCF7 [9] = test: Antiproliferative activity against human MCF7 cells assessed as reduction in cell viability incubated for 48 hrs under chemically-induced hypoxic condition by MTT assay; settings: MCF7, 48 h
MCF7 [10] = test: Induction of apoptosis in human MCF7 cells assessed as late apoptotic cells at […] measured after 24 hrs by Annexin V-FITC/propidium iodide staining based flow cytometry (reference value: 0.29 %); type: functional; parameters: dose or concentration left out as unconfirmed
MCF7 [11] = test: Antiproliferative activity against human MCF7 cells assessed as reduction in cell viability incubated for 48 hrs under normaxic condition by MTT assay; settings: MCF7, 48 h
MDA-MB-231 [12] = test: Induction of cell cycle arrest in human MDA-MB-231 cells assessed as decrease in G0/G1 cells at IC50 concentration incubated for 24 hrs by propidium iodide staining based flow cytometry (reference value: 56.42%); type: functional; parameters: scale not given: the % may be the effect or the level left

Chain of Carbonic anhydrase 1 (P00915 whole entry): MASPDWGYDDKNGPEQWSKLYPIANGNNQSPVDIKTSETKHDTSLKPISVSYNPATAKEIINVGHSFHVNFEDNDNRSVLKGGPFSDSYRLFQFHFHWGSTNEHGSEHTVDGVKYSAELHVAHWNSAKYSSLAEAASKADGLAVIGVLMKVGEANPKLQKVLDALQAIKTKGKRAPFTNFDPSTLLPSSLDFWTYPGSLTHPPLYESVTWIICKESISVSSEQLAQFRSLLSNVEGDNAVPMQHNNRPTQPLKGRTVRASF

`Cc1c(C(=O)/C=C/Nc2cccc(S(N)(=O)=O)c2)sc2nc3ccccc3n12` gave a Ki (Carbonic anhydrase 9) of 0.813 µM.
In the case of `Cc1c(C(=O)/C=C/Nc2cc(Cl)c(S(N)(=O)=O)cc2S(N)(=O)=O)sc2nc3ccccc3n12`, the Ki (Carbonic anhydrase 9) is reported as 0.0308 µM.
In the case of `C/C(=N\Nc1ccc(S(N)(=O)=O)cc1)c1sc2nc3ccccc3n2c1C`, the Ki (Carbonic anhydrase 9) is reported as 0.0731 µM.
`Cc1c(C(=O)/C=C/Nc2cccc(C(=O)O)c2)sc2nc3ccccc3n12` gave a Ki (Carbonic anhydrase 1) of over 10 µM and a Ki (Carbonic anhydrase 9) of 14.5 µM.
Work on `Cc1c(NC(=O)Nc2cccc(S(N)(=O)=O)c2)sc2nc3ccccc3n12` yielded a Ki (Carbonic anhydrase 9) of 0.0767 µM.
Work on `Cc1ccc(N/C=C/C(=O)c2sc3nc4ccccc4n3c2C)cc1S(N)(=O)=O` yielded an IC50 (MDA-MB-231 [1]) of 4.81 µM, an IC50 (MDA-MB-231 [2]) of 9.37 µM and a Ki (Carbonic anhydrase 9) of 0.0062 µM. For the same compound, the Activity (MDA-MB-231 [3]) was 7.21%, the Activity (MCF7 [4]) was 34.36% and the Activity (MDA-MB-231 [5]) was 15.64%. For the same compound, the Activity (MCF7 [6]) was 6.04%, the Activity (MCF7 [7]) was 3.71% and the Activity (MDA-MB-231 [8]) was 11.22%. For the same compound, the IC50 (MCF7 [9]) was 2.36 µM, the Activity (MCF7 [10]) was 17.16% and the IC50 (MCF7 [11]) was 1.51 µM. For the same compound, the Activity (MDA-MB-231 [12]) was 26.47%.
`Cc1c(NC(=O)Nc2ccc(S(N)(=O)=O)cc2)sc2nc3ccccc3n12` was tested, and the Ki (Carbonic anhydrase 9) was 0.0633 µM.
`Cc1c(C(=O)/C=C/NNc2ccc(S(N)(=O)=O)cc2)sc2nc3ccccc3n12` gave a Ki (Carbonic anhydrase 9) of 0.0123 µM.
For `Cc1c(NC(=O)NNC(=O)c2ccc(S(N)(=O)=O)cc2)sc2nc3ccccc3n12`, the Ki (Carbonic anhydrase 9) was 0.0531 µM.
`C/C(=N\NC(=O)c1ccc(S(N)(=O)=O)cc1)c1sc2nc3ccccc3n2c1C` gave an IC50 (MDA-MB-231 [1]) of 6.79 µM, an IC50 (MDA-MB-231 [2]) of 9.91 µM and a Ki (Carbonic anhydrase 9) of 0.0055 µM. The IC50 (MCF7 [9]) was 29.4 µM and the IC50 (MCF7 [11]) was 20.4 µM.
In the case of `Cc1c(C(=O)/C=C/NCc2ccc(S(N)(=O)=O)cc2)sc2nc3ccccc3n12`, the Ki (Carbonic anhydrase 9) is reported as 0.0559 µM.
`Cc1c(C(=O)/C=C/Nc2ccc(C(=O)O)cc2)sc2nc3ccccc3n12` showed a Ki (Carbonic anhydrase 9) of 0.83 µM.
`Cc1c(C(=O)/C=C/Nc2ccc(S(N)(=O)=O)cc2)sc2nc3ccccc3n12` showed a Ki (Carbonic anhydrase 9) of 0.0366 µM.
`Cc1c(NC(=O)NCCc2ccc(S(N)(=O)=O)cc2)sc2nc3ccccc3n12` gave a Ki (Carbonic anhydrase 9) of 0.0297 µM.
Compound `Cc1c(C(=O)/C=C/Nc2ccccc2S(N)(=O)=O)sc2nc3ccccc3n12` has a Ki (Carbonic anhydrase 9) of 0.498 µM.
Work on `Cc1c(C(=O)/C=C/NCCc2ccc(S(N)(=O)=O)cc2)sc2nc3ccccc3n12` yielded a Ki (Carbonic anhydrase 9) of 0.0205 µM.
`Cc1c(NC(=O)Nc2ccccc2S(N)(=O)=O)sc2nc3ccccc3n12` was tested, and the Ki (Carbonic anhydrase 9) was 0.831 µM.
With `Cc1c(C(=O)/C=C/NNC(=O)c2ccc(S(N)(=O)=O)cc2)sc2nc3ccccc3n12` the IC50 (MDA-MB-231 [1]) was 15.2 µM, the IC50 (MDA-MB-231 [2]) was 14.2 µM and the Ki (Carbonic anhydrase 9) was 0.0097 µM. The IC50 (MCF7 [9]) was 9.38 µM and the IC50 (MCF7 [11]) was 8.07 µM.
